Measurements published in patent US11834453B2, “Substituted pyrimido[5,4-d]pyrimidines as HER2 inhibitors” (Array BioPharma Inc., priority 2020, dated 2023).

How the values were obtained:
[1] = target: ErbB2 insYVMA (HER2-YVMA, SEQ ID NO: 2) (Homo sapiens, UniProt P04626, INS775YVMA/P1170A); assay: biochemical; settings: ErbB2 insYVMA enzyme assay; read-out: Assay 1 IC50
ErbB2 WT = ErbB2 WT (Homo sapiens (Human), UniProt P04626); assay: ErbB enzyme assay (CisBio HTRF KinEASE-TK), Assay 2; assay type: biochemical
Method in brief: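 Readout is HTRF KinEASE-TK, using Sa-XL665 and cryptate antibody for 1 h at 22 °C, as percent of control between DMSO-only (100) and pre-quenched (0) reactions. The kinase reaction runs 30 min at 22 °C with 1 mM ATP and 250 nM biotinylated TK substrate, in HEPES pH 7.4 with MgCl2 and 2% DMSO.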

EGFR = EGFR (Homo sapiens (Human), UniProt P00533); assay: ErbB enzyme assay (CisBio HTRF KinEASE-TK), Assay 3; assay type: biochemical
Method in brief: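 Using a time-resolved FRET read-out, tyrosine phosphorylation of 250 nM biotin substrate at 1 mM ATP (pH 7.4, 10 mM MgCl2, 2% DMSO, 22 °C, 30 min) was quantified against DMSO and pre-quenched controls; IC50 taken at 50% of control.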

[2] = target: ErbB2 with Exon 20 YVMA insertion (HER2-YVMA) (Homo sapiens (Human), UniProt P04626, INS775YVMA); assay: Cellular phosphorylation assay, constitutive ErbB2 phosphorylation (Y1196) in engineered NIH 3T3 cells, Assay 4; assay type: cell-based
Method in brief: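 In-cell Western in NIH 3T3 cells carrying ErbB2 exon 20 YVMA insertion, with no ligand stimulation. One hour compound exposure at 37 °C before fixation and anti-pY1196 plus GAPDH staining with dual-wavelength fluorescence. IC50 derived after GAPDH normalization.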

EGFR wild type (EGFR WT) = EGFR wild type (EGFR WT) (Homo sapiens (Human), UniProt P00533); assay: Cellular phosphorylation assay, EGF-stimulated EGFR phosphorylation in engineered NIH 3T3 cells, Phospho-EGFR DuoSet IC ELISA, Assay 5; assay type: cell-based
Method in brief: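 Phospho-EGFR ELISA on lysates of engineered NIH 3T3 EGFR WT cells, IC50 derived from concentration curves. Cells plated at 20,000/well overnight, given compound dilutions 1 h at 37 °C, then rEGF 100 ng/ml for a further 10 min before lysis.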

ErbB2 insYVMA (HER2-YVMA, SEQ ID NO: 2), sequence (P04626 with tags, fused parts or gaps INS775YVMA/P1170A limits assumed): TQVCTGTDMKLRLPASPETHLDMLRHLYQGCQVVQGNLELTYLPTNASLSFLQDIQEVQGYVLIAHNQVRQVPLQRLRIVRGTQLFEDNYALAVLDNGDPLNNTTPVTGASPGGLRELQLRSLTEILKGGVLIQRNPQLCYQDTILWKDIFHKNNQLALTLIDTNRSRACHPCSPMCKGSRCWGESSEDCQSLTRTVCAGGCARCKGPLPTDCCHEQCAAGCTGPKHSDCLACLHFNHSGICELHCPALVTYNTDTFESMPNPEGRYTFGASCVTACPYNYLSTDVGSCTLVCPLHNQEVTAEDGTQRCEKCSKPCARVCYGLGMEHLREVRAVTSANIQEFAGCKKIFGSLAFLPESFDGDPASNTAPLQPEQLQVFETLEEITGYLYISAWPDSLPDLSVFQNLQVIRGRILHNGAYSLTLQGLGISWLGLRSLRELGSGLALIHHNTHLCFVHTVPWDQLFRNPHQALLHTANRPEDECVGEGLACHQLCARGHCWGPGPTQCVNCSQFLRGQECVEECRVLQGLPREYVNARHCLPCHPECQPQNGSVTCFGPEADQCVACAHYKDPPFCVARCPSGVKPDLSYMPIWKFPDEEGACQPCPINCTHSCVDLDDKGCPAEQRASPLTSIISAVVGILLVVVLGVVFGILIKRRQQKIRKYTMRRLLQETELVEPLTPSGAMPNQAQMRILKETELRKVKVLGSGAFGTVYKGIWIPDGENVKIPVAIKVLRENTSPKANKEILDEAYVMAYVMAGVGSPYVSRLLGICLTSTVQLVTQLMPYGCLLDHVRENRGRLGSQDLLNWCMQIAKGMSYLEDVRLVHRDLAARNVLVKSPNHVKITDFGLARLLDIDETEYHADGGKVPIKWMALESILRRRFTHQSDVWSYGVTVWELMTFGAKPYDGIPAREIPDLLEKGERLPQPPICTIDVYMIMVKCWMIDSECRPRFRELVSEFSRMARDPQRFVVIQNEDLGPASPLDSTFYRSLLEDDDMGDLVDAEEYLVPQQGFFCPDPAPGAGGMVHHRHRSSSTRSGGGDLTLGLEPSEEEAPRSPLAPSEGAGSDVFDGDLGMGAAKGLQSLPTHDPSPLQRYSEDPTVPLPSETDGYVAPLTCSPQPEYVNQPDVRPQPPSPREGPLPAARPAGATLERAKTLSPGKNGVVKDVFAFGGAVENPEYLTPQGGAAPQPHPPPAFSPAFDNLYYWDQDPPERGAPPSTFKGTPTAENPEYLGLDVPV
ErbB2 WT, sequence (P04626 23-1255): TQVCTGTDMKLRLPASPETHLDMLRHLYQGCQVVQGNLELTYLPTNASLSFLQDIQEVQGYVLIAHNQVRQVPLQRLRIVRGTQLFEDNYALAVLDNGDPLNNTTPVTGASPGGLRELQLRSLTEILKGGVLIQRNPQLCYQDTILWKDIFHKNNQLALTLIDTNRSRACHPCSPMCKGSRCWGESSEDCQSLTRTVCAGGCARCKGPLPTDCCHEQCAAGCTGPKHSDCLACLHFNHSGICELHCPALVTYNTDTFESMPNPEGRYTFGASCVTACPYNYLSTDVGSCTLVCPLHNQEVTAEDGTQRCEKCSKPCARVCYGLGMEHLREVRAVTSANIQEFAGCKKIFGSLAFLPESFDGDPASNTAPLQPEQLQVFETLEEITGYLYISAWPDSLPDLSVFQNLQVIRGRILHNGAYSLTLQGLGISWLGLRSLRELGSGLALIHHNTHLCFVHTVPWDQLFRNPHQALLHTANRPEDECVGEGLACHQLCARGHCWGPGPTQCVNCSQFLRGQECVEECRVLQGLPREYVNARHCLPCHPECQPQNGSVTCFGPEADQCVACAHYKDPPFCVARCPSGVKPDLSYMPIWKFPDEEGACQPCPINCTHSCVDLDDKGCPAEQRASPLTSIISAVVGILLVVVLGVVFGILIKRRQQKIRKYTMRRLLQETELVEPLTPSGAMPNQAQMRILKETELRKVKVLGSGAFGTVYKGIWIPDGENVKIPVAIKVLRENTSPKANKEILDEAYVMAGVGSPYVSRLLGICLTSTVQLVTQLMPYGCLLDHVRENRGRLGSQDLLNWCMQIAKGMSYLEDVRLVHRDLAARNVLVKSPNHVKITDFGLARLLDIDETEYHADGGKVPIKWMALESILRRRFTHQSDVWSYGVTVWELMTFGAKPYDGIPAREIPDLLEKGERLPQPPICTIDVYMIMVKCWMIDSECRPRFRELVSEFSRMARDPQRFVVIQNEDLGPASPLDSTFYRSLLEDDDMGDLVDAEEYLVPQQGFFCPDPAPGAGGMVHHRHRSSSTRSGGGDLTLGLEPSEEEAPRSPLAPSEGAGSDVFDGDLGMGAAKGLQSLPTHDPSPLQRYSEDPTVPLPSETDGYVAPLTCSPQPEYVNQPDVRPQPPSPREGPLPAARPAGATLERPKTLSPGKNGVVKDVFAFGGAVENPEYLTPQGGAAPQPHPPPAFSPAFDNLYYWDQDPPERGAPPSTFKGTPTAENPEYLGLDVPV
EGFR, sequence (P00533 25-1210): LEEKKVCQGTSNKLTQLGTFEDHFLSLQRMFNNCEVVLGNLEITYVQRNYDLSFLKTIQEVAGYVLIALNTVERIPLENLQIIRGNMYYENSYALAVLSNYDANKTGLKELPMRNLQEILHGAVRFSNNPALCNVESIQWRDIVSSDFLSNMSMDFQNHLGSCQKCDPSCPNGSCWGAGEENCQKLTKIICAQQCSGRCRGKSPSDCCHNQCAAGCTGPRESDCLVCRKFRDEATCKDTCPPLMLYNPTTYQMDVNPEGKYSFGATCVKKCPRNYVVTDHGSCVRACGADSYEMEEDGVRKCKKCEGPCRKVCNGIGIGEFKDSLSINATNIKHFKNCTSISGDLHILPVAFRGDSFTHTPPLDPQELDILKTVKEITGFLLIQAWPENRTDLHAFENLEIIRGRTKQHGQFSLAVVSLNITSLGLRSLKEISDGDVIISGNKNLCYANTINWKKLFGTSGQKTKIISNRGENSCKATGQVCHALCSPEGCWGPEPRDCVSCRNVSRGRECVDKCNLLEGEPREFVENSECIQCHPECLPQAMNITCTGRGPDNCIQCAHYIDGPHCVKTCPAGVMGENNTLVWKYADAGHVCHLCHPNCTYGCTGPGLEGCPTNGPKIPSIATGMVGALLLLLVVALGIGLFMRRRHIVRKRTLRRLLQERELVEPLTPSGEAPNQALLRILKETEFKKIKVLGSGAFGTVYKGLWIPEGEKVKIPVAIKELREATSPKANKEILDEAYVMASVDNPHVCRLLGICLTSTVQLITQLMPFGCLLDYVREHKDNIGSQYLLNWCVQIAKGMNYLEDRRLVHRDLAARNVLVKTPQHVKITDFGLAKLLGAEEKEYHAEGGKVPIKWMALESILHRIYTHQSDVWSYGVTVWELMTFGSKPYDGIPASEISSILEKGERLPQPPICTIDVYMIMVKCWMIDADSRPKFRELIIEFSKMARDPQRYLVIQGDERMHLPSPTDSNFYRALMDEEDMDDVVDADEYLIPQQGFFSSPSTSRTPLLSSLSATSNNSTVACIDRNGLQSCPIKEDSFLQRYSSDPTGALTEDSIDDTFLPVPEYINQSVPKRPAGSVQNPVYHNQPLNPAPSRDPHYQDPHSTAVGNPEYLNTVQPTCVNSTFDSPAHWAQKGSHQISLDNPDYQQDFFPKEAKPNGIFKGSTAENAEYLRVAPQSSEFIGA
EGFR wild type (EGFR WT), sequence (P00533 25-1210): as above

SMILES	IC50 [1]	IC50 (ErbB2 WT)	IC50 (EGFR)	IC50 [2]	IC50 (EGFR wild type (EGFR WT))
Clc1cc(Nc2ncnc3cnc(N4CC5CCC(C4)O5)nc23)ccc1Oc1ccn2ncnc2c1 [Example 383]	56.3 nM	75.3 nM	≥ 10000 nM	4140 nM	≥ 5000 nM
Clc1cc(Nc2ncnc3cnc(N4CCO[C@H]5C[C@H]54)nc23)ccc1Oc1ccn2ncnc2c1 [Example 384]	13.6 nM	43 nM	4310 nM	91.5 nM	≥ 5000 nM
Cc1cc(Nc2ncnc3cnc(N(C)CC4(O)CC4)nc23)ccc1Oc1ccn2ncnc2c1 [Example 385]	18.5 nM	40 nM	5150 nM	183 nM	≥ 5000 nM
Cc1cc(Nc2ncnc3cnc(N4CCC[C@@]5(CCO5)C4)nc23)ccc1Oc1ccc2c(c1)ncn2C [Example 386]	82.1 nM	59.4 nM	6990 nM	16.7 nM	≥ 5000 nM
N#C[C@@H]1CCN(c2ncc3ncnc(Nc4ccc(Oc5ccn6ncnc6c5)c(Cl)c4)c3n2)C1 [Example 387]	70 nM	132 nM	≥ 10000 nM	163 nM	≥ 5000 nM
Clc1cc(Nc2ncnc3cnc(N4C[C@H]5CC[C@@H]4CO5)nc23)ccc1Oc1ccn2ncnc2c1 [Example 389]	16.7 nM	12.2 nM	≥ 10000 nM	127 nM	≥ 5000 nM
Cc1cc(Nc2ncnc3cnc(N4CC[C@H]4C(F)F)nc23)ccc1Oc1ccn2ncnc2c1 [Example 390]	24.8 nM	44.6 nM	3980 nM	108 nM	≥ 5000 nM
Cc1cc(Nc2ncnc3cnc(N4C[C@]5(CCOC5)CC4=O)nc23)ccc1Oc1ccc2c(c1)ncn2C [Example 391]	94.3 nM	298 nM	≥ 10000 nM	143 nM	≥ 5000 nM
Cc1c(Oc2ccc3c(c2)ncn3C)ccc(Nc2ncnc3cnc(N4CC[C@@H](O)C4)nc23)c1F [Example 392]	16.6 nM	14.6 nM	≥ 10000 nM	79.9 nM	≥ 5000 nM
Cn1cnc2cc(Oc3ccc(Nc4ncnc5cnc(N6C[C@@H]7[C@@H](C#N)[C@@H]7C6)nc45)cc3Cl)ccc21 [Example 393]	63.3 nM	237 nM	≥ 10000 nM	43.2 nM	≥ 5000 nM
CO[C@@H]1CCN(c2ncc3ncnc(Nc4ccc(Oc5ccn6ncnc6c5)c(C)c4)c3n2)C1 [Example 395]	24.6 nM	57.6 nM	≥ 10000 nM	898 nM	≥ 5000 nM
CN(C)c1ncc2ncnc(Nc3ccc(Oc4ccn5ncnc5c4)c(Cl)c3)c2n1 [Example 396]	4.9 nM	9.6 nM	≥ 10000 nM	23.9 nM	≥ 5000 nM
Clc1cc(Nc2ncnc3cnc(N4CCOC5(CC5)C4)nc23)ccc1Oc1ccn2ncnc2c1 [Example 398]	22.1 nM	36.5 nM	7770 nM	70.5 nM	≥ 5000 nM
Clc1cc(Nc2ncnc3cnc(N4C[C@@H]5[C@H](C4)[C@@H]4CC[C@H]5O4)nc23)ccc1Oc1ccn2ncnc2c1 [Example 399]	28.2 nM	29 nM	≥ 10000 nM	192 nM	≥ 5000 nM
Cc1cc(Nc2ncnc3cnc(N4CC[C@@H](C(F)F)C4)nc23)ccc1Oc1ccn2ncnc2c1 [Example 400]	8.7 nM	40.7 nM	8420 nM	218 nM	≥ 5000 nM
Cc1cc(Nc2ncnc3cnc(N4C[C@@H]5[C@@H](C#N)[C@@H]5C4)nc23)ccc1Oc1ccc2c(c1)ncn2C [Example 401]	149 nM	161 nM	≥ 10000 nM	24.8 nM	≥ 5000 nM
Cc1cc(Nc2ncnc3cnc(N(C)C4COC4)nc23)ccc1Oc1ccn2ncnc2c1 [Example 403]	16.7 nM	12 nM	6630 nM	339 nM	≥ 5000 nM
Cc1cc(Nc2ncnc3cnc(N4CC[C@@H](C#N)C4)nc23)ccc1Oc1ccn2ncnc2c1 [Example 404]	22.8 nM	37 nM	7550 nM	182 nM	≥ 5000 nM
CN(CC(C)(C)O)c1ncc2ncnc(Nc3ccc(Oc4ccn5ncnc5c4)c(Cl)c3)c2n1 [Example 405]	15.7 nM	30.3 nM	4690 nM	106 nM	≥ 5000 nM

SMILES	IC50 [1]	IC50 (ErbB2 WT)	IC50 (EGFR)	IC50 [2]	IC50 (EGFR wild type (EGFR WT))
N#CC[C@H]1CCN(c2ncc3ncnc(Nc4ccc(Oc5ccn6ncnc6c5)c(Cl)c4)c3n2)C1 [Example 406]	16.6 nM	32.3 nM	8280 nM	63.6 nM	≥ 5000 nM
Cc1cc(Nc2ncnc3cnc(N4CCC[C@H]4C(C)(C)O)nc23)ccc1Oc1ccc2c(c1)ncn2C [Example 408]	32.6 nM	65.6 nM	≥ 10000 nM	42.1 nM	≥ 5000 nM
Clc1cc(Nc2ncnc3cnc(N4CCOCC4)nc23)ccc1Oc1ccn2ncnc2c1 [Example 409]	18.3 nM	32.1 nM	3530 nM	43 nM	≥ 5000 nM
FC(F)[C@H]1CCN1c1ncc2ncnc(Nc3ccc(Oc4ccn5ncnc5c4)c(Cl)c3)c2n1 [Example 410]	14.7 nM	42.3 nM	6300 nM	208 nM	≥ 5000 nM
COC1CCN(c2ncc3ncnc(Nc4ccc(Oc5ccn6ncnc6c5)c(C)c4)c3n2)CC1 [Example 411]	26.3 nM	56.2 nM	≥ 10000 nM	604 nM	≥ 5000 nM
Cc1cc(Nc2ncnc3cnc(N4CCOCC4)nc23)ccc1Oc1ccn2ncnc2c1 [Example 412]	25.9 nM	70.5 nM	≥ 10000 nM	69.7 nM	≥ 5000 nM
Cc1cc(Nc2ncnc3cnc(N(C)C[C@H]4COCCO4)nc23)ccc1Oc1ccc2c(c1)ncn2C [Example 413]	49.7 nM	102 nM	≥ 10000 nM	30.8 nM	≥ 5000 nM
Cc1cc(Nc2ncnc3cnc(N4CCC[C@@](C)(O)C4)nc23)ccc1Oc1ccn2ncnc2c1 [Example 414]	25.2 nM	23.7 nM	1410 nM	140 nM	≥ 5000 nM
Cc1cc(Nc2ncnc3cnc(N(C)[C@@H]4CCCOC4)nc23)ccc1Oc1ccn2ncnc2c1 [Example 415]	16.9 nM	16.8 nM	970 nM	94.6 nM	≥ 5000 nM
N#CC[C@@H]1CCN(c2ncc3ncnc(Nc4ccc(Oc5ccn6ncnc6c5)c(Cl)c4)c3n2)C1 [Example 416]	11.3 nM	21.5 nM	2240 nM	27.1 nM	≥ 5000 nM
Cc1cc(Nc2ncnc3cnc(N4CCN5CCOC[C@H]5C4)nc23)ccc1Oc1ccn2ncnc2c1 [Example 417]	31.4 nM	62.1 nM	6860 nM	62.6 nM	≥ 5000 nM
Clc1cc(Nc2ncnc3cnc(N4C[C@H]5C[C@@H]4CO5)nc23)ccc1Oc1ccn2ncnc2c1 [Example 418]	42.8 nM	103 nM	≥ 10000 nM	229 nM	≥ 5000 nM
Cc1cc(Nc2ncnc3cnc(N4C5CCC4COC5)nc23)ccc1Oc1ccn2ncnc2c1 [Example 419]	110 nM	196 nM	≥ 10000 nM	538 nM	≥ 5000 nM
Cc1cc(Nc2ncnc3cnc(N4CCC5COCC54)nc23)ccc1Oc1ccn2ncnc2c1 (centres unmarked) [Example 420]	8.2 nM	12.9 nM	1580 nM	108 nM	≥ 5000 nM
Cc1cc(Nc2ncnc3cnc(N4CCN[C@@H](C(F)(F)F)C4)nc23)ccc1Oc1ccn2ncnc2c1 [Example 421]	29.3 nM	43 nM	4940 nM	69.9 nM	≥ 5000 nM
Cc1cc(Nc2ncnc3cnc(N4CC[C@@H]4C(C)(C)O)nc23)ccc1Oc1ccn2ncnc2c1 [Example 423]	110 nM	337 nM	≥ 10000 nM	1950 nM	≥ 5000 nM
CN(c1ncc2ncnc(Nc3ccc(Oc4ccn5ncnc5c4)c(Cl)c3)c2n1)C1COC1 [Example 424]	16 nM	19.4 nM	3930 nM	44.9 nM	≥ 5000 nM
Cc1cc(Nc2ncnc3cnc(N4CC5(CCN(C)C5=O)C4)nc23)ccc1Oc1ccc2c(c1)ncn2C [Example 425]	68.1 nM	495 nM	≥ 10000 nM	185 nM	≥ 5000 nM
